Measured values reported in patent US8563520B2, “Treatment of ocular disease with inhibitors of alpha2 macroglobulin protein” (McGill University, priority 2005, dated 2013).
“Also recorded” adds a separate entry of the source. Read-outs that look alike come from different tables or passages of the source.

Tests used:
[1] = tested on: rat eyes; details: for IOP of normal eyes: daily topical betaxolol 0.5% eye drops; for IOP of cauterized (high IOP) eyes: daily topical betaxolol 0.5% eye drops from day 3 post-cauterization
Experimental: Episcleral cauterization of rat eyes was performed under anesthesia. After a conjunctival incision, extra-ocular muscles were isolated and the major limbal draining veins were identified based on location, relative immobility, larger caliber and branching pattern. Cauterization of three episcleral vessels in the right eye was done with a 30″ cautery tip. The left eye in each animal was used as normal IOP control after sham-surgery (conjunctival incisions with no cauterization).
IOP was gauged using a Tonopen XL tonometer under light anesthesia (intramuscular injection of ketamine, […]; xylazine, 0.32 mg/kg; and acepromazine, 0.4 mg/kg).
A selective β-blocker (betaxolol 0.5%, Alcon) was applied daily as eye drops.

[2] = tested on: retinal ganglion cells (RGCs); assay: RGC loss in high IOP (cauterization) glaucoma model, retrograde RGC labeling and counting; assay type: in vivo, rat; details: for RGC loss (% at day 42 vs normal): 14 days high, 28 normal IOP
Experimental: Episcleral cauterization of rat eyes was performed under anesthesia.
RGCs were labeled with 3% DII (1,1-dioctadecyl-3,3,3,3-tetramethylindocarbocyanine perchlorate) or with 3% fluorogold. Briefly, Wistar rats were anesthetized and their heads were mounted in a stereotactic apparatus.
7 days after dye injection, the vasculature of the rats were perfused-fixed (transcardiac perfusion in phosphate-buffer (PB), followed by 4% PFA in PB) and the eyes were enucleated. After post-fixing for 1 hour cuts were made through the sclera to form a Maltese cross pattern and retinas detached from the eyecup at the optic nerve head. The retinas were flat-mounted on glass slides (vitreous side up) air-dried and cover-slipped with mounting medium (Molecular Probes). The retinas were observed under fluorescence microscopy (Zeiss). […] RGCs were recognized in flat mounted retinas by the presence of retrogradely transported dye and by morphology. RGCs in all 4 quadrants (16 images per retina) were averaged and presented as […] of area counted.
A puncture was made on the eye wall with a 30 G needle to allow the entrance of a cannula in the […]. A glass cannula (10 μm thickness), prepared with an upright microelectrode puller (Narishige) was connected through plastic tubing to a Hamilton syringe to dispense solutions of anti-α2 macroglobulin rabbit antibody (Calbiochem), control PBS, or control rabbit antibody (Sigma). Injections were done at day 14 and 21 post-surgery (in sham-operated control eyes with normal IOP, and cauterized eyes with high IOP). The intraocular injections were in 2 μl volumes containing a total of 2 μg antibody. This amount was selected because in quantitative western blots of whole rat retina there was an estimated total of ˜1 μg of α2 macroglobulin in glaucomatous eyes (data not shown). Ocular pressure was not affected by intraocular injections, the high IOP eyes remained high IOP and the normal IOP eyes remained normal IOP (data not shown).
A second paradigm was used to confirm the role of α2 macroglobulin in RGC death. Neutralizing antibodies to α2 macroglobulin were injected intraocularly in glaucomatous eyes with high IOP to determine whether RGC death could be prevented. The experimental model was to induce high IOP for 14 days to trigger α2 macroglobulin over-expression and RGC damage, before the initiation of α2 macroglobulin neutralizing therapy. Neutralization was used as single therapy, or was combined with daily betaxolol treatment to better reflect the clinical setting in which glaucoma patients would be simultaneously treated with pressure-lowering drugs. Neutralizing antibodies were given at days 14 and 21 after cauterization, and surviving RGCs, identified by retrograde labeling, were counted at day 42 post-surgery. […]

[3] = tested on: retinal mRNA; details: day 28
Experimental: RNA preparation. Total RNA was isolated from retinal tissue using TRIZOL® (Life Technologies). Three retinas belonging to the same experimental group were pooled for the gene microarray experiment. RNA was then further purified using the RNAEASY® (QIAGEN®). The integrity of the RNA samples was assessed by running aliquots on RNA 6000 Nano LabChip (Agilent) using the 2100 bioanalyzer (Agilent).
Probe synthesis, hybridization and scanning were done according to Affymetrix protocol, as a service at the McGill University and Genome Quebec Innovation Centre. For the experiments shown, Rat U34 Genome Arrays (8,700 genes, Affymetrix) were used. Briefly, RNA samples were first converted to double stranded cDNA (T7-(dT)24 primer (Genset)). Then the cDNAs were purified and used to generate the biotinylated cRNA probes (Bioarray High Yield RNA transcript labeling kit (Enzo diagnostics)). An aliquot of the purified cRNA was analyzed on RNA 6000 Nano LabChip (Agilent) to verify the integrity and size distribution. Immediately after hybridization the chip was placed in the Affymetrix GeneChip Fluidics Station 400 (Affymetrix). In total, 10 low-stringency washes (63 SSPE, 0.01% Tween-20, 0.005% Antifoam) and 4 high-stringency washes (100 mM MES, 0.1 M NaCl, 0.01% Tween-20, 50 C) were performed (all reagents from Sigma). The array was then incubated with SAPE® (streptavidin/phycoerythrin stain, Molecular Probes), followed by 10 low stringency washes. The array was incubated with biotinylated anti-streptavidin antibody (Vector Laboratories) and washed again with 15 low stringency washes. Specifically bound probe was detected by placing the array in the Agilent GeneArray scanner 2500 (Affymetrix). The scanned images were analyzed using the Microarray Analysis Suite version 5.0 (Affymetrix). Statistical analyses were done with the help of the Kensington Discovery Edition version 1.8 (Inforsense).
Retinas were carefully dissected out to insure that only retinal mRNAs were prepared for gene microarray studies. Samples were obtained from sham operated eyes (normal IOP control, Group 1), eyes at 28 days high IOP (test, Group 2), and eyes 28 days after cauterization plus daily betaxolol treatment from day 3 onwards (Group 3). […] Samples from each of these groups (n=4 each group) were studied by gene microarrays (see FIG. 2 flowchart). A cutoff of 2.5-fold was used to afford significance (p<0.05).

[4] = tested on: α2 macroglobulin mRNA; details: betaxolol treatment; still significantly increased over normal IOP
Text: Retinas were dissected from eyes treated as indicated (n=3) and mRNAs were purified and studied by Northern blotting with labeled α2 macroclobulin or actin (control) probes.

`CC(C)NCC(O)COc1ccc(CCOCC2CC2)cc1` (stereo not drawn) [betaxolol] was tested, and the “IOP of normal eyes” value [1] was “no significant effect on normal IOP”, the “IOP of cauterized (high IOP) eyes” value [1] was “full normalization of IOP after 3 days” and the “IOP of cauterized (high IOP) eyes” value ([1]; listed as Betaxolol) was “fully normalized high IOP from day 7 onward”. For the same compound, the “IOP of normal eyes” value ([1]; listed as Betaxolol) was “no significant effect”, the “RGC loss (% at day 42 vs normal)” value ([2]; daily betaxolol days 14-42, no Ab injection) was 19±1% and the “RGC loss (% at day 42 vs normal)” value ([2]; daily betaxolol days 14-42, no Ab injection, listed as Betaxolol) was 19 ± 1%. The “RGC loss (% at day 42 vs normal)” value ([2]; daily betaxolol days 14-42 plus control serum days 14 and 21) was 21 ± 5%, the “rate of RGC loss” value ([2]; daily betaxolol, IOP normalized from day 7 onwards) was “reduces the rate of RGC loss, but does not prevent it; also recorded: reduced the average rate of RGC loss, but did not prevent it” and the “Relative Change versus non-cauterized eyes, cauterized + betaxolol B” value ([3]; gene ATPase alpha-1 subunit (M74494)) was 1.5. For the same compound, the “Relative Change versus non-cauterized eyes, cauterized + betaxolol B” value ([3]; gene Amphiphysin 1 (Y13381)) was −1.1, the “Relative Change versus non-cauterized eyes, cauterized + betaxolol B” value ([3]; gene Amyloid precursor-like protein 2 (X77934)) was 1.1 and the “Relative Change versus non-cauterized eyes, cauterized + betaxolol B” value ([3]; gene Asparagine synthase (U07201)) was −1.1. For the same compound, the “Relative Change versus non-cauterized eyes, cauterized + betaxolol B” value ([3]; gene B-2 arylamine N-acetyltransferase (U01347)) was 1.5, the “Relative Change versus non-cauterized eyes, cauterized + betaxolol B” value ([3]; gene Beta A3/A1 crystallin (X15143)) was −1.1 and the “Relative Change versus non-cauterized eyes, cauterized + betaxolol B” value ([3]; gene Clone RKIAS43 (AA892520)) was 2.9. For the same compound, the “Relative Change versus non-cauterized eyes, cauterized + betaxolol B” value ([3]; gene Crybb2 (X83671)) was −1.0, the “Relative Change versus non-cauterized eyes, cauterized + betaxolol B” value ([3]; gene Cyclic nucleotide-gated cation channel (AJ000515)) was 3.4 and the “Relative Change versus non-cauterized eyes, cauterized + betaxolol B” value ([3]; gene Gial fibrillary acidic protein (AF028784)) was 1.4. The “Relative Change versus non-cauterized eyes, cauterized + betaxolol B” value ([3]; gene Gzα (U77483)) was 1.1, the “Relative Change versus non-cauterized eyes, cauterized + betaxolol B” value ([3]; gene Helicase RAP 30 (L01267)) was 1.2 and the “Relative Change versus non-cauterized eyes, cauterized + betaxolol B” value ([3]; gene PSD-95/SAP90-asociated protein-4 (U67140)) was −1.0. For the same compound, the “Relative Change versus non-cauterized eyes, cauterized + betaxolol B” value ([3]; gene Protein phosphatase 1 gamma (S78217)) was 2.5, the “Relative Change versus non-cauterized eyes, cauterized + betaxolol B” value ([3]; gene RBCK (AB011369)) was 1.3 and the “Relative Change versus non-cauterized eyes, cauterized + betaxolol B” value ([3]; gene Ras-related p23 (X12535)) was 1.1. For the same compound, the “Relative Change versus non-cauterized eyes, cauterized + betaxolol B” value ([3]; gene Reggie1-1 (AF023302)) was 1.8, the “Relative Change versus non-cauterized eyes, cauterized + betaxolol B” value ([3]; gene Ribosomal protein L23-related product (U62635)) was 3.8 and the “Relative Change versus non-cauterized eyes, cauterized + betaxolol B” value ([3]; gene S-adenosylmethionine synthase (J05571)) was 1.1. The “Relative Change versus non-cauterized eyes, cauterized + betaxolol B” value ([3]; gene SPARC (U75928)) was 1.9, the “Relative Change versus non-cauterized eyes, cauterized + betaxolol B” value ([3]; gene cDNA clone rx00382 (AI639155)) was 7.2 and the “Relative Change versus non-cauterized eyes, cauterized + betaxolol B” value ([3]; gene cDNA clone rx01295 (AI639375)) was 4.8. The “Relative Change versus non-cauterized eyes, cauterized + betaxolol B” value ([3]; gene cDNA clone rx05013 (AI639441)) was 2.8, the “Relative Change versus non-cauterized eyes, cauterized + betaxolol B” value ([3]; gene α2 macroglobulin (M23566)) was 5.6 and the “increase of retinal α2 macroglobulin mRNA at day 28 of high IOP” value [4] was “attenuated slightly”.
